Assay results as given in ChEMBL document CHEMBL1201862, “PubChem BioAssay data set” (2004).
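1) Cells in 96-well plates. 2) Compound, 48 h, 5 concentrations. 3) Linear interpolation between surrounding doses. 4) Unreached endpoint = highest concentration. At the GI50, growth is halved.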 Active and inactive are the calls of the source. No stated cut-off is given here; in the data, active = GI50 up to about 1.1 µM and inactive = higher.

How the values were obtained:
Test in all cases: inhibition of tumour cell growth, NCI panel, 48 h
786-0 = system: 786-0
DU-145 = system: DU-145
HT-29 = system: HT-29
Hs-578T = system: Hs-578T
K562 = system: K562
M14 = system: M14
OVCAR-8 = system: OVCAR-8
PC-3 = system: PC-3
SF-268 = system: SF-268
SF-295 = system: SF-295
SK-MEL-2 = system: SK-MEL-2
SK-MEL-5 = system: SK-MEL-5
SNB-75 = system: SNB-75
SW-620 = system: SW-620
T47D = system: T47D
U-251 = system: U-251
UACC-62 = system: UACC-62

| Structure (SMILES) | GI50 (786-0) | GI50 (DU-145) | GI50 (HT-29) | GI50 (Hs-578T) | GI50 (K562) | GI50 (M14) | GI50 (OVCAR-8) | GI50 (PC-3) | GI50 (SF-268) | GI50 (SF-295) | GI50 (SK-MEL-2) | GI50 (SK-MEL-5) | GI50 (SNB-75) | GI50 (SW-620) | GI50 (T47D) | GI50 (U-251) | GI50 (UACC-62) |
| --- | --- | --- | --- | --- | --- | --- | --- | --- | --- | --- | --- | --- | --- | --- | --- | --- | --- |
| COC(=O)C1=C(OC(=O)/C(=C/c2ccc(Cl)cc2Cl)c2ccc(Cl)cc2Cl)C(C(=O)OC)[C@@]2(O)[C@@H](C(=O)OC)[C@H](C)C[C@@H]1[C@@H]2C(=O)OC (stereo partly specified) | > 100 µM (inactive) | > 100 µM (inactive) | > 100 µM (inactive) | > 100 µM (inactive) | > 100 µM (inactive) | > 100 µM (inactive) | 34.4 µM (inactive) | 7.1 µM (inactive) | > 100 µM (inactive) | 16.5 µM (inactive) | > 100 µM (inactive) | > 100 µM (inactive) | > 100 µM (inactive) | > 100 µM (inactive) | > 100 µM (inactive) | > 100 µM (inactive) | 92.5 µM (inactive) |
| CC1(C)OCC(C2OC(=O)C(OCc3ccccc3)=C2OCc2ccccc2)O1 (stereo unspecified) | 45 µM (inactive) | 81.1 µM (inactive) | 51.4 µM (inactive) | 70.6 µM (inactive) | 27.4 µM (inactive) | 45.5 µM (inactive) | 50.4 µM (inactive) | 21 µM (inactive) | 83.2 µM (inactive) | 34 µM (inactive) | 23.1 µM (inactive) | 17.2 µM (inactive) | 49.9 µM (inactive) | 51.8 µM (inactive) | 28.8 µM (inactive) | 39.2 µM (inactive) | 22.4 µM (inactive) |
| O=c1[nH]nc(Cc2ccccc2)n1/N=C/c1c[nH]c2ccccc12 | 43 µM (inactive) | > 100 µM (inactive) | 71.6 µM (inactive) | 25.4 µM (inactive) | > 100 µM (inactive) | > 100 µM (inactive) | > 100 µM (inactive) | 92 µM (inactive) | 21.9 µM (inactive) | 27.7 µM (inactive) | > 100 µM (inactive) | > 100 µM (inactive) | 13.3 µM (inactive) | > 100 µM (inactive) | > 100 µM (inactive) | 52.1 µM (inactive) | 41.6 µM (inactive) |
| CN(C)CCn1c(=O)c2ccc(NCCCN(C)CCCNc3ccc4c(=O)n(CCN(C)C)c(=O)n5c6ccc(O)cc6c(=O)c3c45)c3c(=O)c4cc(O)ccc4n(c1=O)c23 | < 0.01 µM (active) | < 0.01 µM (active) | < 0.01 µM (active) | 0.0234 µM (active) | < 0.01 µM (active) | 0.147 µM (active) | < 0.01 µM (active) | < 0.01 µM (active) | 0.0481 µM (active) | < 0.01 µM (active) | 0.0335 µM (active) | < 0.01 µM (active) | < 0.01 µM (active) | < 0.01 µM (active) | 0.0624 µM (active) | < 0.01 µM (active) | < 0.0116 µM (active) |
| O=C(O)c1nc(-c2ccccn2)c(-c2ccccn2)nc1C(=O)O | 2.61 µM (inactive) | 2.47 µM (inactive) | 2.7 µM (inactive) | 19.1 µM (inactive) | 3.66 µM (inactive) | 1.42 µM (inactive) | 3.44 µM (inactive) | 4.47 µM (inactive) | 3.31 µM (inactive) | 2.49 µM (inactive) | 4.95 µM (inactive) | 1.28 µM (inactive) | 3.49 µM (inactive) | 3.26 µM (inactive) | 5.19 µM (inactive) | 1.77 µM (inactive) | 2.1 µM (inactive) |
| Cc1cc(O)c2c(c1)C(C1c3cccc(O)c3C(=O)c3c(O)cc(C)cc31)c1cccc(O)c1C2=O (stereo unspecified) | 0.466 µM (active) | 0.4 µM (active) | 0.378 µM (active) | 0.175 µM (active) | 1.02 µM (active) | 0.327 µM (active) | 0.335 µM (active) | 0.105 µM (active) | 0.311 µM (active) | 0.286 µM (active) | 0.294 µM (active) | 0.212 µM (active) | 0.243 µM (active) | 0.448 µM (active) | 0.631 µM (active) | 0.31 µM (active) | 0.269 µM (active) |
| CN(C)CCNC(=O)c1ccc(NCCCN(C)CCCNc2ccc3c(=O)n(CCN(C)C)c(=O)n4c5ccccc5c(=O)c2c34)c2c(O)c3ccccc3nc12 | < 0.01 µM (active) | < 0.01 µM (active) | < 0.01 µM (active) | 0.0285 µM (active) | 0.0324 µM (active) | 0.164 µM (active) | < 0.01 µM (active) | < 0.01 µM (active) | < 0.01 µM (active) | < 0.01 µM (active) | 0.0315 µM (active) | 0.0617 µM (active) | < 0.01 µM (active) | < 0.01 µM (active) | 0.165 µM (active) | < 0.01 µM (active) | 0.0678 µM (active) |
| CC#CC#C/C=C1/C=CC2(CCCCO2)O1 (stereo unspecified) | > 100 µM (inactive) | > 100 µM (inactive) | > 100 µM (inactive) | > 100 µM (inactive) | 40.2 µM (inactive) | > 100 µM (inactive) | > 100 µM (inactive) | > 100 µM (inactive) | > 100 µM (inactive) | > 100 µM (inactive) | > 100 µM (inactive) | > 100 µM (inactive) | > 100 µM (inactive) | > 100 µM (inactive) | > 100 µM (inactive) | > 100 µM (inactive) | 86.5 µM (inactive) |
